Data as given in US5168102A, “Endocrine manipulation to improve body composition of poultry” (priority 1990, dated 1992).

Assays:
[1] = Example 1: body composition (proximate analysis of carcass); format: in vivo, broiler cockerels (Ross X Arbor Acre strain)
From the text: (§1) The purpose of this study was to determine the effect manipulating blood levels of thyroid hormones and/or growth hormone on growth performance and body composition of broiler chickens. […] Purified natural chicken growth hormone (ncGH) was obtained from the Research and Education Center, Harbor-UCLA Medical Center, Torrance, Calif. […] The premix (200 g) was then used to prepare 50 kg batches of each experimental diet according to the formula for broiler-finisher ration described in Table 1. The diet containing 0.5% PTU was prepared by mixing 250 g of PTU into 49.75 kg of the basal ration (Table 1).
(§2) Broiler cockerels (Ross X Arbor Acre strain) were raised to 3 weeks-of-age in a battery-brooder and then transferred to wire grow-out cages (4 birds/pen) held in two controlled-environment rooms (10 pens/room). Beginning at 3 weeks of age, eight birds (2 pens of 4 birds) were randomly assigned to each of 10 treatments. The chickens were provided the experimental diets and water ad libitum. […] For injection, the ncGH was reconstituted in sterile 0.025M sodium bicarbonate buffer (pH 9.8). The 10 treatments were administered for 21 days (i.e., from 3 to 6 weeks of age).
(§3) Measurement of body weight and feed consumption at weekly intervals allowed calculation of the average daily gain (ADG, g/bird/day), average daily feed consumption (ADFC, g/bird/day) and the feed-to-gain ratio (FIG, kg feed/kg gain) over the 21 day experimental period. Blood samples were taken each week (4, 5, and 6 weeks) just before (pre-injection) and 4 hours post-injection of ncGH. […] At the conclusion of the study, birds were killed and the carcasses frozen for proximate analysis. The frozen carcasses were ground in a meat grinder and aliquots of each ground carcass taken for determination of moisture, protein, fat and ash by established analytical procedures (Official Method of Analysis, Edition 13, W. Horwitz ed., Association of Official Analytical Chemist, Washington, D.C., 1980). Body composition data are presented as a percent of live weight at 6 weeks-of-age. Least squares regression analysis was used to test for significant differences (P<0.05) due treatment.

[2] = Example 1: growth and feed efficiency of broiler cockerels fed thyroid-active substances with or without daily ncGH injection; format: in vivo, broiler cockerels (Ross X Arbor Acre strain)
From the text: as §1, §2, §3

[3] = Example 1: plasma hormone concentrations (radioimmunoassays)
From the text: as §1, §2, §3

[4] = hypothyroid state; cited from earlier work
[5] = at the doses tested
From the text: Referring now to broiler chickens as a benchmark for the beneficial effects of this invention, it must be noted that these chickens grow from a weight of 30 to 50 grams at hatching to about 1.5-3 or even as much as 5 kilograms of body weight at market age. Of this market weight, 15-20 wt.-% is protein, 2-3 wt.-% is inorganic (showing up as ash in proximate analysis of body composition), and more than 10 wt.-% (e.g. 10-20 wt.-%) is fat, which means that the protein:fat ratio (by weight) is likely to be at or below 1.5:1 and certainly well below 2:1.

[6] = injected; commercial preparations from cattle and swine pancreases; cited from earlier work
[7] = Group 1, dietary, 6 weeks-of-age, N = 8

## CCCc1cc(=O)[nH]c(=S)[nH]1 [PTU, 6-N-propyl-2-thiouracil]
[1]; [7]
  Body composition: Ash: 2.17 ± .06 % BW
  Body composition: Fat: 18.2 ± .80 % BW
  Body composition: Protein: 17.2 ± .20 % BW
  Body composition: Water: 61.9 ± .73 % BW
[1]; vs CF group
  body fat content, increase: 50%
  effect on body protein, water and ash: at the expense of body ash, protein and water
[2]; 1 ppm T3, 1 ppm T4, 5 ppm TRH or 0.5% PTU in feed, 3 to 6 weeks of age, Group 1, mean ±SEM
  BW (body weight): 1.42 ± .05 kg
[2]; Group 1, dietary
  effect on growth rate and feed efficiency: depressed growth rate and reduced feed conversion
[2]; Group 1, dietary, 21 days
  ADFC (average daily feed consumption): 92.3 ± 7.9 g/bird/day
  ADG (average daily weight gain): 39.2 ± 4.0 g/bird/day
  FTG (feed-to-gain ratio): 2.36 ± .04 kg feed/kg gain
[2]; vs birds fed CF or thyroid hormones (P<0.05)
  final body weight, reduction: 18%
[3]; Group 1
  average plasma T3 level: 1.5 ng/mL
[3]; Group 1, dietary, N = 24
  I/G Molar Ratio: 6.35
  plasma Glucagon (G): 225 pg/mL
  plasma Insulin (I): 2349 pg/mL
[3]; vs CF birds (P<0.05)
  average plasma T3 level, reduction: 53%
[3]; vs CF group (P<0.05)
  plasma I/G molar ratio, fold greater: 2.9 times
[3]; vs CF treatment
  plasma GH level, fold higher: 1.9 times
[3]; vs average of CF and TRH treatments (P<0.05)
  plasma T4 level, reduction: 76%
[4]
  body fat: increased accumulation of body fat
  plasma insulin levels: elevated plasma insulin levels
[5]
  effect on protein:fat ratio: seemed to decrease the protein:fat ratio

## glucagon
[6]
  biological and metabolic activity in chickens: the same biological and metabolic activity as endogenous glucagon
